Data from paper PMC4583475, “Receptor Polymorphism and Genomic Structure Interact to Shape Bitter Taste Perception” (PLoS Genetics, 2015).

Experiments:
[1] = test system: bitter taste perception of 48 Caucasian subjects; assay: Human psychophysical bitter taste tests (4-AFC recognition thresholds, gLMS intensity ratings); assay type: in vivo; settings: for concentration perceived as weakly bitter, fold range across subjects / concentration perceived as weakly bitter, mode: gLMS weak intensity
Protocol: All were pre-screened to avoid inclusion of individuals with health problems and overt taste pathologies; pregnant and breast-feeding women were also excluded. Each subject participated in the entire course of the study, which included one training session and nine experimental sessions. Visits consisted of DNA collection and psychophysical tests for genotyping and phenotypic analyses, respectively. General taste abilities were also assessed for the bitter, salty, sour, and sweet taste during the first session.
Experiments were conducted at the sensory analysis laboratory of the German Institute of Human Nutrition Potsdam-Rehbruecke, according to good practice guidelines. […] Perceived bitter taste intensities were rated on the general Labelled Magnitude Scale (gLMS; [72–74]). […] For each 4-AFC test, four coded samples containing 10 ml solution were presented simultaneously; one containing the bitter tastant diluted in mineral water (Evian; Danone, Paris, France) and three containing mineral water only. At each concentration, subjects were challenged to identify the different sample, specify whether the quoted sample tasted bitter, and rate the perceived bitter intensity. Tests were performed with nose clips and oral rinsing, with a 45 s pause between concentrations. Training sessions were first used to familiarize subjects with the experimental procedures, and secondly, to assess general taste abilities. Concentration series consisted of geometric sequences of […], with a 1.5 common ratio and the following concentration ranges: 3.5x10^-5–2.0x10^-3M, 6.9x10^-4–4.0x10^-2 M, 2.6x10^-4–1.5x10^-2 M, 6.9x10^-4–4.0x10^-2 M, for salicin, sodium chloride, citric acid, and sucrose used as reference tastants for bitter, salty, sour, and sweet taste, respectively. Following training, subjects tested each tastant in triplicate over nine sessions. Latin square designs extended for first-order carry-over effects were used to counterbalance presentation order of the test compounds over the test sessions, across subjects and for each test compound, as well as presentation order of the samples at each concentration across both repetitions and subjects. Sensory sessions were monitored and data automatically collected (Fizz; Biosystèmes, Couternon, France).
Detection and recognition probabilities of the bitter samples were analysed per repetition and subject. Relationships between probabilities (detection or recognition probabilities) and concentrations were fitted by a logistic regression model using the maximum-likelihood method. Threshold value and slope of the logistic curves were then obtained per repetition and subject, using a self-implemented toolbox (Matlab; The MathWorks Inc.). […] Where required, outliers were discarded according to the Peirce’s criterion. Perceived intensities, expressed in percentage of the scale length, were analysed similarly.

TAS2R30-H1 = assay: Calcium imaging in HEK 293T Gα16gust44 cells transfected with TAS2R30-H1; assay type: cell-based, human; settings: for threshold: first concentration eliciting significant receptor activation
Excerpt: (§1) Allelic responses to agonists were quantified using in vitro heterologous expression assays designed in previous studies of TAS2R receptor function, which successfully mimic responses in vivo with respect to both magnitude and concentration range [17, 23, 25, 26, 46]. DNA fragments containing TAS2R coding sequences were first amplified from genomic DNA by PCR using a proofreading polymerase (PfuUltra II Fusion HotStart DNA Polymerase; Agilent Technologies, Santa Clara, CA, USA) and cloned into a plasmid vector according to the manufacturer’s protocol (Zero Blunt TOPO PCR Cloning Kit; Life Technologies). A second PCR was performed using specific cloning primers to facilitate subcloning into the expression vector, which was then modified to add an N-terminal signal for cell surface localisation and a C-terminal epitope for immunocytochemical detection to the receptor sequence (Fast Link DNA Ligation Kit; Epicentre, Illumina Inc., Madison, WI, USA) (pcDNA5/FRT Mammalian Expression Vector; Life Technologies). Empty vector was used as a negative control.
(§2) Functional assays were carried out in HEK 293T cells stably expressing the G protein chimera Gα16gust44 and transiently transfected with TAS2R alleles subcloned into the expression vector [78]. Calcium imaging was performed using an automated fluorometric imaging plate reader by exposing transfected cells to test compounds dissolved in assay buffer or to assay buffer alone (FLIPR Tetra; Molecular Devices, LLC, Sunnyvale, CA, USA). Changes in cytosolic calcium levels were monitored by measuring fluorescence intensity of a calcium-sensitive dye previously added (Fluo-4 AM; Life Technologies). Six replicates were carried out for each bitter stimulus, on separate experimental days, with each replicate consisting of concentration series of each bitter tastant.
(§3) Prior to final analysis, fluorescence data from functional assays, expressed in relative fluorescence units (RFU), underwent three corrections. First, a correction calculated from baseline values was applied to compensate for well-to-well fluctuations. A second correction calculated from negative control values was applied to correct for receptor independent artefacts and signal drift. A third correction calculated from positive control values was applied to facilitate comparison of data obtained from different experimental days. Fluorescence ratios ((F-F0)/F0), obtained by subtracting the background fluorescence from fluorescence peak height and then dividing the difference by the background fluorescence, were then used for data analysis. Variance analyses were performed, followed by Bonferroni multiple comparisons tests (SPSS 20; IBM Corporation, Armonk, NY, USA). Threshold response values were then defined as the first concentration eliciting a significant activation of the receptor, with empty vector acting as a negative control. Finally, dose-response curves were fitted to the Hill equation by nonlinear regression in order to determine half maximal effective concentrations (EC50) and maximal amplitude (SigmaPlot; Systat Software Inc., Chicago, IL, USA).

TAS2R30-H2 = assay: Calcium imaging in HEK 293T Gα16gust44 cells transfected with TAS2R30-H2; assay type: cell-based, human; settings: for threshold: first concentration eliciting significant receptor activation
Excerpt: as §1, §2, §3

TAS2R46-H1 = molecular target: T1, TAS2R46-H1 (Homo sapiens, UniProt P59540); assay: Calcium imaging in HEK 293T Gα16gust44 cells transfected with TAS2R46-H1; assay type: cell-based; settings: for threshold: first concentration eliciting significant receptor activation
T1 construct: N-terminal signal for cell surface localisation (N); expressed in transfected cells; host or cells: HEK 293T cells stably expressing the G protein chimera Gα16gust44
T1 sequence (P59540 1-309): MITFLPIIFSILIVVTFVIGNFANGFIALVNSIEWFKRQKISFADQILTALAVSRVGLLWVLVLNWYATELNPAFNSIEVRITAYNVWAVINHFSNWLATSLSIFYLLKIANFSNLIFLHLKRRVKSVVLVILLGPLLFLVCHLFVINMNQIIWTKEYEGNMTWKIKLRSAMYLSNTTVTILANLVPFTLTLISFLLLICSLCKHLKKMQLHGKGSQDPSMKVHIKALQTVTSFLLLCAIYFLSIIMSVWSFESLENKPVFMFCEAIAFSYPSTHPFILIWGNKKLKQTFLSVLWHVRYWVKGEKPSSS
Excerpt: as §1, §2, §3

TAS2R46-H2 = molecular target: T2, TAS2R46-H2 (Homo sapiens, UniProt P59540); assay: Calcium imaging in HEK 293T Gα16gust44 cells transfected with TAS2R46-H2; assay type: cell-based; settings: TAS2R46-H2, truncated variant (premature stop codon)
T2 construct: TAS2R46-H2, a truncated, six-transmembrane variant of the receptor; N-terminal signal for cell surface localisation (N); expressed in transfected cells; host or cells: HEK 293T cells stably expressing the G protein chimera Gα16gust44
T2 sequence (P59540 1-249 limits assumed): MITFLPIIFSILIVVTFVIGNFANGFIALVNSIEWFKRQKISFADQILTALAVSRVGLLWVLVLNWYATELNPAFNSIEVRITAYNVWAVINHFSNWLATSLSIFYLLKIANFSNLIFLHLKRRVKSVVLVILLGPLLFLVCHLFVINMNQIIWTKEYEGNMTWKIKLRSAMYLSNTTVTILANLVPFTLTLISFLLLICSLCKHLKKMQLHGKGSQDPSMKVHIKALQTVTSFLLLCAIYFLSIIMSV
Excerpt: as §1, §2, §3

TAS2R46-H3 = assay: Calcium imaging in HEK 293T Gα16gust44 cells transfected with TAS2R46-H3; assay type: cell-based, human; settings: for threshold: first concentration eliciting significant receptor activation
Excerpt: as §1, §2, §3

[2] = test system: every known TAS2R in humans; set-up: method as in PMID 20022913; settings: complete TAS2R family; cited from earlier work
TAS2R43-H1 = assay: Calcium imaging in HEK 293T Gα16gust44 cells transfected with TAS2R43-H1; assay type: cell-based, human; settings: first concentration eliciting significant receptor activation
Excerpt: as §1, §2
as §3, with “Threshold response values were then defined as the first concentration eliciting a significant activation of the receptor, with empty vector acting as a negative control. Finally, dose-response curves were fitted to the Hill equation by nonlinear regression in order to determine half maximal effective concentrations (EC50) and maximal amplitude (SigmaPlot; Systat Software Inc., Chicago, IL, USA).” left out

TAS2R43-H2 = assay: Calcium imaging in HEK 293T Gα16gust44 cells transfected with TAS2R43-H2; assay type: cell-based, human; settings: first concentration eliciting significant receptor activation
Excerpt: as §1, §2
as §3, with “Threshold response values were then defined as the first concentration eliciting a significant activation of the receptor, with empty vector acting as a negative control. Finally, dose-response curves were fitted to the Hill equation by nonlinear regression in order to determine half maximal effective concentrations (EC50) and maximal amplitude (SigmaPlot; Systat Software Inc., Chicago, IL, USA).” left out

[3] = test system: TAS2R30, -31, -43, and -46; assay: Calcium imaging functional assays, statements across TAS2R loci (variants not resolved); assay type: cell-based, human; settings: fold higher than TAS2R30
Excerpt: as §1
as §2, with “Six replicates were carried out for each bitter stimulus, on separate experimental days, with each replicate consisting of concentration series of each bitter tastant.” left out
Prior to final analysis, fluorescence data from functional assays, expressed in relative fluorescence units (RFU), underwent three corrections. First, a correction calculated from baseline values was applied to compensate for well-to-well fluctuations. A second correction calculated from negative control values was applied to correct for receptor independent artefacts and signal drift. […]

TAS2R31-H1 = assay: Calcium imaging in HEK 293T Gα16gust44 cells transfected with TAS2R31-H1; assay type: cell-based, human
Excerpt: (§4) Allelic responses to agonists were quantified using in vitro heterologous expression assays designed in previous studies of TAS2R receptor function, which successfully mimic responses in vivo with respect to both magnitude and concentration range [17, 23, 25, 26, 46]. DNA fragments containing TAS2R coding sequences were first amplified from genomic DNA by PCR using a proofreading polymerase (PfuUltra II Fusion HotStart DNA Polymerase; Agilent Technologies, Santa Clara, CA, USA) and cloned into a plasmid vector according to the manufacturer’s protocol (Zero Blunt TOPO PCR Cloning Kit; Life Technologies). […]
as §2, with “Six replicates were carried out for each bitter stimulus, on separate experimental days, with each replicate consisting of concentration series of each bitter tastant.” left out
(§5) Prior to final analysis, fluorescence data from functional assays, expressed in relative fluorescence units (RFU), underwent three corrections. […]

TAS2R31-H2 = assay: Calcium imaging in HEK 293T Gα16gust44 cells transfected with TAS2R31-H2; assay type: cell-based, human
Excerpt: as §4
as §2, with “Six replicates were carried out for each bitter stimulus, on separate experimental days, with each replicate consisting of concentration series of each bitter tastant.” left out
as §5

TAS2R31-H3 = assay: Calcium imaging in HEK 293T Gα16gust44 cells transfected with TAS2R31-H3; assay type: cell-based, human
Excerpt: as §4
as §2, with “Six replicates were carried out for each bitter stimulus, on separate experimental days, with each replicate consisting of concentration series of each bitter tastant.” left out
as §5

TAS2R31-H4 = assay: Calcium imaging in HEK 293T Gα16gust44 cells transfected with TAS2R31-H4; assay type: cell-based, human
Excerpt: as §4
as §2, with “Six replicates were carried out for each bitter stimulus, on separate experimental days, with each replicate consisting of concentration series of each bitter tastant.” left out
as §5

Row | EC50 (TAS2R30-H1) | EC50 (TAS2R30-H2) | EC50 (TAS2R46-H1) | maximum amplitude (TAS2R46-H1) | threshold (TAS2R46-H1) | receptor variant response (TAS2R46-H2) | Compound | concentration perceived as strongly bitter, fold range across subjects ([1]; gLMS strong intensity) | concentration perceived as weakly bitter, fold range across subjects [1] | concentration perceived as weakly bitter, mode [1] | maximum amplitude (TAS2R30-H1) | threshold (TAS2R30-H1) | maximum amplitude (TAS2R30-H2) | threshold (TAS2R30-H2) | threshold (TAS2R46-H3) | TAS2Rs responsive in published receptor-agonist inventory [2] | also measured
1 | 3.1 µM | 1.3 µM | 11 µM | 0.63 ΔF/F | 3 µM | no response at any concentration | CC1=C[C@H]2[C@H]3[C@H](C(C)=C4[C@H]5OC(=O)[C@@H](C)[C@@H]5CC[C@](C)(O)[C@@H]43)[C@@]13[C@@H]2[C@@](C)(O)CC[C@H]1[C@H](C)C(=O)O[C@@H]13 [absinthin] | 5 fold | 15 fold | 390 nM | 0.41 ΔF/F | 300 nM | 0.15 ΔF/F | 1000 nM | 10 µM | TAS2R30 and -46 | recognition threshold, fold range across subjects ([1]; 48 human subjects): 40 fold; concentration perceived as strongly bitter, mode ([1]; gLMS strong intensity): 1.3 µM; EC50 (TAS2R46-H3): 14 µM; maximum amplitude (TAS2R46-H3): 0.48 ΔF/F
2 | 0.41 µM | 0.39 µM | 67 µM | 0.57 ΔF/F | 30 µM | not activated at any concentration | amarogentin | less than 4 fold | 17 fold | 50 nM | 0.50 ΔF/F | 10 nM | 0.12 ΔF/F | 300 nM | 100 µM | TAS2R1, -4, -39, -43, -46, -30, and -50 | bitter taste recognition threshold, mode of distribution ([1]; 48 human subjects): 40 nM; threshold (TAS2R43-H1): 300 µM; threshold (TAS2R43-H2): 300 µM; activation concentration of TAS2R43 relative to TAS2R30 [3]: 3000 fold
3 |  |  |  |  |  |  | C=C[C@H]1C[N@@]2CC[C@H]1C[C@H]2[C@H](O)c1ccnc2ccc(OC)cc12 [quinine] |  |  |  |  |  |  |  |  |  | receptor variant response (TAS2R31-H1): intermediates; receptor variant response (TAS2R31-H2): sensitive; receptor variant response (TAS2R31-H3): insensitive; receptor variant response (TAS2R31-H4): intermediates
